In publication PMC6271626, “Design, Synthesis, and Biological Evaluation of Artemisinin-Indoloquinoline Hybrids as Potent Antiproliferative Agents” (Molecules, 2014) one finds IC50 data, which are given here for 13 compounds.

In test [1] the test system is human leukemia MV4-11 cell line. As to conditions: MV4-11 human leukemia cell line; cited from earlier work.
Test [2] deals with A549, human non-small-cell lung adenocarcinoma cell line. Nature of the test: Antiproliferative assay in vitro, SRB, A549. Type of test: cell-based. As to conditions: mean ± SD. The method, then:
(§1) MV4-11 cells were cultured in the RPMI 1640 medium (IIET, Wroclaw) supplemented with 2 mM L-glutamine and 1.0 mM sodium pyruvate, 10% fetal bovine serum (all from Sigma Aldrich, Germany). HCT116 and A549 cells were cultured in the RPMI1640 + OptiMEM (50:50) medium (IIET, Wroclaw) supplemented with 2 mM L-glutamine and 5% fetal bovine serum (all from Sigma Aldrich, Germany), BALB/3T3 cells were cultured in Dulbecco medium (IIET, Wroclaw) supplemented with 2 mM L-glutamine and 1.0 mM sodium pyruvate, 10% fetal bovine serum (all from Sigma Aldrich, Germany). All culture medium was supplemented with 100 units/mL penicillin and […] streptomycin (both from Polfa, Tarchomin S.A., Warsaw, Poland). All cell lines were grown at 37 °C with 5% CO2 humidified atmosphere.
(§2) Test solutions of the compounds tested (1 mg/mL) were prepared by dissolving the substances in 100 μL of DMSO completed with 900 μL of tissue culture medium. Afterward, the tested compounds were diluted in culture medium to reach the final concentrations of 10, 1, 0.1, 0.01 μg/mL. Twenty four hours prior to the addition of the tested compounds, the cells were plated in 96-well plates (Sarstedt, Germany) at a density of 1 × 10^4 or 0.5× 10^4 (HCT116) cells per well. The assay was performed after 72 h of exposure to varying concentrations of the tested agents. The in vitro cytotoxic effect of all agents was examined using the MTT (for MV4-11 cell line) or SRB (for A549, HCT116 and BALB/3T3 cell lines) assay. The results were calculated as an IC50 (inhibitory concentration 50)–the dose of tested agent that inhibits proliferation of 50% of the cell population. Each compound in each concentration was tested in triplicate in a single experiment, which was repeated 3–5 times.

In test [3] the test system is normal mice fibroblast BALB/3T3. Nature of the test: Cytotoxicity against normal fibroblasts, SRB, BALB/3T3. The format is cell-based, mouse. As to conditions: mean ± SD. Here is the method:
as §1, §2

The test system of test [4] is HCT116, human colon cancer cell line. Description: Antiproliferative assay in vitro, SRB, HCT116. As to conditions: mean ± SD. Type of test: cell-based. Here is the method: as §1, §2
The test system is the same in test [5]. The arrangement: method as in PMID 21207937. As to conditions: cited from earlier work.
Test [6] has as its system A549, human non-small-cell lung adenocarcinoma cell line. The arrangement: method as in PMID 21207937. As to conditions: cited from earlier work.
The subject of test [7] is human leukemia MV4-11 cell line. Description: Antiproliferative assay in vitro, MTT, MV4-11. Type of test: cell-based. As to conditions: mean ± SD. The method, then: as §1, §2
Setting [8] is: Homo sapiens, A549, 72 h exposure.
Where [9] appears, read: Mus musculus, BALB/3T3, 72 h exposure.
[10] abbreviates: Homo sapiens, HCT-116, 72 h exposure.
The mark [11] stands for this setting: Homo sapiens, MV4-11, 72 h exposure.

Where “and” joins values, the source holds several entries; their conditions need not be identical. Equal entries are not always repeated. Structures can show the parent of a compound that is named as a salt. Where two headings read alike, the source gives them in different places. Where only a bound is given, the exact number is not on record here.

For `COC(=O)c1ccc2c(c1)c(NCCCN)c1c3ccccc3nc-1n2C` [Compound 4d, methyl 11-(3-aminopropylamino)-5-methyl-5H-indolo[2,3-b]quinoline-2-carboxylate], the IC50 was 86 ± 20 nM in test [1], 649 ± 80 nM in test [2] (setting [8]), 768 ± 155 nM in test [3] (setting [9]) and 130 ± 14 nM in test [4] (setting [10]).
On to `C[C@H]1[C@@H](O)O[C@@H]2O[C@@]3(C)CC[C@H]4[C@H](C)CC[C@@H]1[C@@]24OO3` [DHA (2), dihydroartemisinin], for which the IC50 in test [5] was 1340 ± 1060 nM; in test [6] it was above 20000 nM.
Take `N.N.[Cl][Pt][Cl]` [cisplatin, reference compound]: the IC50 in test [7] (72 h exposure) amounted to 2820 ± 450 nM; in test [2] (72 h exposure), 8960 ± 3330 nM; in test [3] (72 h exposure), 9500 ± 500 nM; in test [4] (72 h exposure) it was 9460 ± 1300 nM.
With `CC1CCC2C(C)C(OC(=O)CCC(=O)NCCCNc3c4c5ccccc5nc-4n(C)c4ccccc34)OC3OC4(C)CCC1C32OO4` (centres unmarked) [Compound 7a, Artesunate-[N^1-(5-methyl-5H-indolo[2,3-b]quinolin-11-yl)propane-1,3-diamine] hybrid], the IC50 in test [7] (72 h exposure) was found to be 286 ± 79 nM.
In the case of `CC1CCC2C(C)C(OC(=O)CCC(=O)NCCCNc3c4ccccc4nc4c3[nH]c3ccccc34)OC3OC4(C)CCC1C32OO4` (centres unmarked) [Compound 8, Artesunate-[11-(3-aminopropylamino)-10H-indolo[3,2-b]quinoline] hybrid], the IC50 was found to be 286 ± 127 nM in test [7] (setting [11]), 1330 ± 586 nM in test [2] (setting [8]), 2720 ± 731 nM in test [3] (setting [9]) and 557 ± 85 nM in test [4] (setting [10]).
Take `COC(=O)c1ccc2c(c1)c(NCCCNC(=O)CCC(=O)OC1OC3OC4(C)CCC5C(C)CCC(C1C)C35OO4)c1c3ccccc3nc-1n2C` (centres unmarked) [Compound 7d, Artesunate-[methyl 11-(3-aminopropylamino)-5-methyl-5H-indolo[2,3-b]quinoline-2-carboxylate] hybride]: the IC50 came out at 148 ± 15 nM in test [7] (72 h exposure), 3660 ± 535 nM in test [2] (72 h exposure), 4950 ± 220 nM in test [3] (72 h exposure) and 1760 ± 329 nM in test [4] (72 h exposure).
Regarding `Cn1c2nc3ccccc3c-2c(NCCCN)c2ccccc21` [Compound 4a, N^1-(5-methyl-5H-indolo[2,3-b]quinolin-11-yl)propane-1,3-diamine], in test [1], the IC50 was 66 ± 23 nM.
In test [7] (setting [11]), `COc1cccc2c1C(=O)c1c(O)c3c(c(O)c1C2=O)C[C@@](O)(C(=O)CO)C[C@@H]3O[C@H]1C[C@H](N)[C@H](O)[C@H](C)O1` [doxorubicin HCl, reference compound] had an IC50 of 6 ± 2 nM.
Turning to `CC1CCC2C(C)C(OC(=O)CCC(=O)NCCCNc3nc4ccccc4c4[nH]c5ccccc5c34)OC3OC4(C)CCC1C32OO4` (centres unmarked) [Compound 9], the IC50 stood at 128 ± 36 nM in test [7] (setting [11]), 1810 ± 516 nM in test [2] (setting [8]), 4980 ± 471 nM in test [3] (setting [9]) and 855 ± 235 nM in test [4] (setting [10]).
`COC(=O)c1ccc2c(c1)c(NCC(C)(C)CNC(=O)CCC(=O)OC1OC3OC4(C)CCC5C(C)CCC(C1C)C35OO4)c1c3ccccc3nc-1n2C` (centres unmarked) [Compound 7e, Artesunate-[methyl 11-(3-amino-2,2-dimethylpropylamino)-5-methyl-5H-indolo[2,3-b]quinoline-2-carboxylate] hybrid]: the IC50 in test [7] (72 h exposure) worked out at 75 ± 1 nM; in test [2] (72 h exposure) it was 5060 ± 911 nM; in test [3] (72 h exposure), 5940 ± 1160 nM; in test [4] (72 h exposure), 2210 ± 687 nM.
Take `NCCCNc1nc2ccccc2c2[nH]c3ccccc3c12` [Compound 6, 6-(3-aminopropylamino)-11H-indolo[3,2-c]quinoline]: the IC50 was determined as 124 ± 10 nM in test [7] (setting [11]), 172 ± 52 nM in test [2] (setting [8]), 1050 ± 127 nM in test [3] (setting [9]) and 258 ± 107 nM in test [4] (setting [10]).
Consider `CC1CCC2C(C)C(OC(=O)CCC(=O)NCC(C)(C)CNc3c4c5ccccc5nc-4n(C)c4ccc(Br)cc34)OC3OC4(C)CCC1C32OO4` (centres unmarked) [Compound 7c, Artesunate-[N^1-(2-bromo-5-methyl-5H-indolo[2,3-b]quinolin-11-yl)-2,2-dimethylpropane-1,3-diamine] hybrid], for which, in test [7] (72 h exposure), the IC50 is 242 ± 31 nM.
With `CC1CCC2C(C)C(OC(=O)CCC(=O)NCC(C)(C)CNc3c4c5ccccc5nc-4n(C)c4ccc(Cl)cc34)OC3OC4(C)CCC1C32OO4` (centres unmarked) [Compound 7b, Artesunate-[N^1-(2-chloro-5-methyl-5H-indolo[2,3-b]quinolin-11-yl)-2,2-dimethjylpropane-1,3-diamine] hybrid], the IC50 in test [7] (72 h exposure) is ~72 nM and 72 nM; in test [2] (72 h exposure) it was 4560 ± 2090 nM; in test [3] (72 h exposure), 6420 ± 996 nM; in test [4] (72 h exposure), 893 ± 397 nM.
